Data as given in patent publication US5512558A, “Nor-bile acid derivatives, processes for their preparation and the use of these compounds as medicaments” (Hoechst Aktiengesellschaft, priority 1993, dated 1996).

Target: T1, Na+-dependent bile acid transportation system (brush border membrane vesicles of the ileum) (Oryctolagus cuniculus, UniProt Q28727)
T1 construct: Brush border membrane vesicles were prepared from the intestinal cells of the small intestine; from tissue; host or cells: brush border membrane vesicles from the terminal 7/10 of the small intestine (ileum) of male New Zealand rabbits
T1 sequence (Q28727 1-347): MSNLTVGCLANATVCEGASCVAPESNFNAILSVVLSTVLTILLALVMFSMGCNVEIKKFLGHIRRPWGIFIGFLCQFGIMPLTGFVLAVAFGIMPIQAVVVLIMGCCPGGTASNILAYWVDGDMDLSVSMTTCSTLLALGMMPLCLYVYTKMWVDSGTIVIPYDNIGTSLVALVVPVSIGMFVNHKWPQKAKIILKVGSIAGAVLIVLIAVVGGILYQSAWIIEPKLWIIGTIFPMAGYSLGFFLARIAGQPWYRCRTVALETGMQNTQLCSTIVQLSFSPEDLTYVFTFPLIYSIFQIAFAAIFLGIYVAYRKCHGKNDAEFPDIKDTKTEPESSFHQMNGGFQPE
Experiment: Inhibition of [3H]-taurocholate uptake in brush border membrane vesicles of the ileum of rabbits
Format: biochemical
Settings: Na+-dependent part of [3H]-taurocholate uptake (difference Na-T-B minus K-T-B), rabbit ileal brush border membrane vesicles
Description: The compounds according to the invention were tested biologically by determination of the inhibition of ^3 H!-taurocholate uptake in the brush border membrane vesicle of the ileum of rabbits. The inhibition test was carried out as follows:
1. Preparation of brush border membrane vesicles from the ileum of rabbits
Brush border membrane vesicles were prepared from the intestinal cells of the small intestine by the so-called Mg^2+ precipitation method. Male New Zealand rabbits (2 to 2.5 kg body weight) were sacrificed by intravenous injection of 0.5 ml of an aqueous solution of 2.5 mg of tetracaine HCl, 100 T 61^R and 25 mg of mebezonium iodide. The small intestine was removed and rinsed with ice-cold physiological saline solution. The terminal 7/10 of the small intestine (measured in the oral-rectal direction, i.e. the terminal ileum, which contains the active Na^+ -dependent bile acid transportation system) was used for preparation of the brush border membrane vesicles. The intestines were frozen in plastic bags under nitrogen at -80° C. For preparation of the membrane vesicles, the frozen intestines were thawed at 30° C. in a water-bath. The mucosa was scraped off and suspended in 60 ml of ice-cold 12 mMTris/HCl buffer (pH 7.1)/300 mM mannitol, 5 mM EGTA/10 mg/l of phenylmethyl-sulfonyl fluoride/1 mg/l of trypsin inhibitor from soybean (32 U/mg)/0.5 mg/l of trypsin inhibitor from bovine lung (193 U/mg)/5 mg/l bacitracin. After dilution to 300 ml with ice-cold distilled water, the mixture was homogenized with an Ultraturrax (18-rod, IKA Werk Stuafen, FRG) for 3 minutes at 75% of the maximum power, while cooling with ice. After addition of 3 ml of 1M MgCl2 solution (final concentration 10 mM), the mixture was left to stand for exactly 1 minute at 0° C. By addition of Mg^2+, the cell membranes aggregate and precipitate, with the exception of the brush border membranes. After centrifugation at 3000×g (5000 rpm, SS-34 rotor) for 15 minutes, the precipitate is discarded and the supernatant, which contains the brush border membranes, is centrifuged at […] (15,000 rpm, SS-34 rotor) for 30 minutes. The supernatant was discarded and the precipitate was rehomogenized in 60 ml of 12 mMTris/HCl buffer (pH 7.1)/60 mM mannitol, 5 mM EGTA using a Potter Elvejhem homogenizer (Braun, Melsungen, 900 rpm, 10 strokes). After addition of 0.1 ml of 1M MgCl2 solution and an incubation time of 15 minutes at 0° C., the mixture was centrifuged again at 3000×g for 15 minutes. The supernatant was then centrifuged again at 46,000×g (15,000 rpm, SS-34 rotor) for 30 minutes. The precipitate was taken up in 30 ml of 10 mM Tris/Hepes buffer (pH 7.4)/300 mM mannitol and resuspended homogeneously by 20 strokes in a Potter Elvejhem homogenizer at 1000 rpm. After centrifugation at 48,000×g (20,000 rpm, SS-34 rotor) for 30 minutes, the precipitate was taken up in 0.5 to 2 ml of Tris/Hepes buffer (pH 7.4)/280 mM mannitol (final concentration 20 mg/ml) and resuspended with the aid of a tuberculin syringe with a 27 gauge needle. The vesicles were either used for transportation studies immediately after preparation, or stored at -196° C. in 4 mg portions in liquid nitrogen.
2. Inhibition of the Na^+ -dependent ^3 H!-taurocholate uptake in brush border membrane vesicles of the ileum
The uptake of substrates in the brush border membrane vesicles described above was determined by means of the so-called membrane filtration technique. 10 μl of the vesicle suspension (100 μg of protein) were pipetted as drops onto the wall of a polystyrene incubation tube (11×70 mm) which contained the incubation medium with the corresponding ligands (90 μl). […]

Row | Structure (SMILES) | quotient of the IC50Na values of the reference substance taurochenodeoxycholate (TCDC) and the test substance
1 | C[C@H](CCC(=O)O)[C@H]1CC[C@H]2[C@@H]3[C@H](O)C[C@@H]4C[C@@H](NC(=O)C[C@@H](C)[C@H]5CC[C@H]6[C@@H]7[C@H](O)C[C@@H]8C[C@H](O)CC[C@]8(C)[C@H]7C[C@H](O)[C@]56C)CC[C@]4(C)[C@H]3CC[C@]12C [Example 36] | 1.14
2 | C[C@H](CCC(=O)O)[C@H]1CC[C@H]2[C@@H]3[C@H](O)C[C@@H]4C[C@@H](OCCOCCNC(=O)[C@@H](C)[C@H]5CC[C@H]6[C@@H]7[C@H](O)C[C@@H]8C[C@H](O)CC[C@]8(C)[C@H]7C[C@H](O)[C@]56C)CC[C@]4(C)[C@H]3C[C@H](O)[C@]12C [Example 41] | 0.58
3 | C[C@H](CCC(=O)O)[C@H]1CC[C@H]2[C@@H]3[C@H](O)C[C@@H]4C[C@@H](NC(=O)C[C@@H](C)[C@H]5CC[C@H]6[C@@H]7[C@H](O)C[C@@H]8C[C@H](O)CC[C@]8(C)[C@H]7C[C@H](O)[C@]56C)CC[C@]4(C)[C@H]3C[C@H](O)[C@]12C [Example 32] | 0.65
4 | CC(C(=O)N[C@H]1CC[C@@]2(C)[C@@H](C1)C[C@@H](O)[C@@H]1[C@@H]2CC[C@]2(C)[C@@H]([C@H](C)CCC(=O)O)CC[C@@H]12)[C@H]1CC[C@H]2[C@@H]3[C@H](O)C[C@@H]4C[C@H](O)CC[C@]4(C)[C@H]3C[C@H](O)[C@]12C (stereo partly shown) [Example 43] | 0.78
5 | C[C@H](CCC(=O)N[C@H]1CC[C@@]2(C)[C@@H](C1)C[C@@H](O)[C@@H]1[C@@H]2C[C@H](O)[C@]2(C)[C@@H]([C@H](C)CC(=O)O)CC[C@@H]12)[C@H]1CC[C@H]2[C@@H]3[C@H](O)C[C@@H]4C[C@H](O)CC[C@]4(C)[C@H]3CC[C@]12C [Example 65] | 0.64
6 | C[C@H](CCC(=O)NCC(=O)O)[C@H]1CC[C@H]2[C@@H]3[C@H](O)C[C@@H]4C[C@@H](OCCOCCNC(=O)C[C@@H](C)[C@H]5CC[C@H]6[C@@H]7[C@H](O)C[C@@H]8C[C@H](O)CC[C@]8(C)[C@H]7C[C@H](O)[C@]56C)CC[C@]4(C)[C@H]3C[C@H](O)[C@]12C [Example 57] | 0.34
7 | C[C@H](CC(=O)O)[C@H]1CC[C@H]2[C@@H]3[C@H](O)C[C@@H]4C[C@@H](NC(=O)[C@@H](C)[C@H]5CC[C@H]6[C@@H]7[C@H](O)C[C@@H]8C[C@H](O)CC[C@]8(C)[C@H]7C[C@H](O)[C@]56C)CC[C@]4(C)[C@H]3C[C@H](O)[C@]12C [Example 69] | 0.86
